Data: ChEMBL document CHEMBL5291721, “A preclinical secondary pharmacology resource illuminates target-adverse drug reaction associations of marketed drugs” (Nat Commun, 2023)

Tests used:
[1] = target: T1, Alpha-2B adrenergic receptor (Homo sapiens, UniProt P18089)
T1 sequence (P18089 whole entry): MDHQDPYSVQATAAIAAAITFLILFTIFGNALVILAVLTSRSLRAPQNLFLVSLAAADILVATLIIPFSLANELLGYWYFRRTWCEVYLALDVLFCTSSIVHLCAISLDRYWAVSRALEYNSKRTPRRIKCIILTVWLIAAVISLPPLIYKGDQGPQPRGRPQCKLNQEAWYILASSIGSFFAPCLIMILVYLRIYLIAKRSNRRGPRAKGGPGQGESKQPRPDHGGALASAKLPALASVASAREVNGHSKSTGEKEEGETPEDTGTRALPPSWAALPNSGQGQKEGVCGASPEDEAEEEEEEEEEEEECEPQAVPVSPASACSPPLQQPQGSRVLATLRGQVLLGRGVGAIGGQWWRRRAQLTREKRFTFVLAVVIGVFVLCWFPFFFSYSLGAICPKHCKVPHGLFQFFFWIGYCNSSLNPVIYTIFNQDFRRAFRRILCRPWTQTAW

[2] = target: T2, Cholecystokinin receptor type A (Homo sapiens, UniProt P32238)
T2 sequence (P32238 whole entry): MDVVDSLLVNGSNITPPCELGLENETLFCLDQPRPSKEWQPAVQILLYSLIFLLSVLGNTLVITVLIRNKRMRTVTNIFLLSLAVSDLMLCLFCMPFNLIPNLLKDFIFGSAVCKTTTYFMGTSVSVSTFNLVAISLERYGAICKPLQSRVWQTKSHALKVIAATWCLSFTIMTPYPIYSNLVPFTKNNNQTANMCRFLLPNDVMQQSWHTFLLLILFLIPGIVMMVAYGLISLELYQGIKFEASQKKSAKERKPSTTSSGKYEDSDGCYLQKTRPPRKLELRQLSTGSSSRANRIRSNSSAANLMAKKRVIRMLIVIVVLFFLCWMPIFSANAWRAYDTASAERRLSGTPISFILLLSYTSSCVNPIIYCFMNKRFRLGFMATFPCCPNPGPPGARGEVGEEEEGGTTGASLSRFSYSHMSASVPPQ

[3] = target: T3, Alpha-2A adrenergic receptor (Homo sapiens, UniProt P08913); assay type: functional, cell-based
T3 sequence (P08913 whole entry): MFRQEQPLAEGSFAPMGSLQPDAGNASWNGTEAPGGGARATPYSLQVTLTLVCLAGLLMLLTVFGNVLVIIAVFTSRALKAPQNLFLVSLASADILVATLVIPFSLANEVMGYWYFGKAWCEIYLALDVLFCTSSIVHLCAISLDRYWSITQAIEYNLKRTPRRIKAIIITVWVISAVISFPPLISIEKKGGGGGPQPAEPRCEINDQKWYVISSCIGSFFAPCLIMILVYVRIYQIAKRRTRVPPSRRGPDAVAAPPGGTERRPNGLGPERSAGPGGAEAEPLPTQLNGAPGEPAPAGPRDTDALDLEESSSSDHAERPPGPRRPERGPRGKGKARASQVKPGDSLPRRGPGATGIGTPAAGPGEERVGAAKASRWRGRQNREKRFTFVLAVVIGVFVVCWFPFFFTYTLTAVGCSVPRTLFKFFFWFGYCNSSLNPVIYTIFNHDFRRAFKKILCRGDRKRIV

[4] = target: Sodium-dependent dopamine transporter (Homo sapiens, UniProt Q01959)
Chain of Sodium-dependent dopamine transporter (Q01959 whole entry): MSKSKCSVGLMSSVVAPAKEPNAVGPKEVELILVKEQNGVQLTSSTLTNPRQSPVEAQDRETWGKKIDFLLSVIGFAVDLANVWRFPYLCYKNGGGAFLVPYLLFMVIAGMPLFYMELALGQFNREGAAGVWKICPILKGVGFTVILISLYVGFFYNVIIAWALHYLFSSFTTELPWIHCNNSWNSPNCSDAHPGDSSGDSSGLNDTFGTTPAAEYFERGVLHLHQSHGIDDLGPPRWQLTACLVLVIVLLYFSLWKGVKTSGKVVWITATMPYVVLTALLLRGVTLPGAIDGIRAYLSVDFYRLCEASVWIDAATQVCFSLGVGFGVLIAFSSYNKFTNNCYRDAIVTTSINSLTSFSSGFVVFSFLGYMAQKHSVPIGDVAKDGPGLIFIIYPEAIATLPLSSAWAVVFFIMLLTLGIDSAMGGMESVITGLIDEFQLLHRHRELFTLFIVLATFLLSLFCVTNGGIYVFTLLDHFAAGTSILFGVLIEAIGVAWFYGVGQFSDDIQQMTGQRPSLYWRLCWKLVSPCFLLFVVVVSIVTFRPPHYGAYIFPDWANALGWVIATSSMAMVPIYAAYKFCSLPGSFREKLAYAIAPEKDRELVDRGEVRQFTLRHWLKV

[5] = target: Muscarinic acetylcholine receptor M3 (Homo sapiens, UniProt P20309)
Chain of Muscarinic acetylcholine receptor M3 (P20309 whole entry): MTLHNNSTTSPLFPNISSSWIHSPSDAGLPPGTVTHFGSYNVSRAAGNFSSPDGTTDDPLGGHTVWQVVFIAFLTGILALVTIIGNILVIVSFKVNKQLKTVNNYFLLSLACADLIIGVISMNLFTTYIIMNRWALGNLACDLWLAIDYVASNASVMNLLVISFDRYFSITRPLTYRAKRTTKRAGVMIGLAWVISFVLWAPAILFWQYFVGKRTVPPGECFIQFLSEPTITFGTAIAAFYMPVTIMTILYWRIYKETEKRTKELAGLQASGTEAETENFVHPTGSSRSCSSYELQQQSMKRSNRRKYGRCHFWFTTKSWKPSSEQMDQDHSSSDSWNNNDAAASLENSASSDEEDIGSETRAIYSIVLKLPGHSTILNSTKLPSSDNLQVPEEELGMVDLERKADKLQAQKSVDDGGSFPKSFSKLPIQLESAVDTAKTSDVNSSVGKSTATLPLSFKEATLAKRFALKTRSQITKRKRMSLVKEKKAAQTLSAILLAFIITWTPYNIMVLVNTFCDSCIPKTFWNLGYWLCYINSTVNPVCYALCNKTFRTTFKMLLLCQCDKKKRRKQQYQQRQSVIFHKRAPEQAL

[6] = target: T4, Muscarinic acetylcholine receptor M1 (Homo sapiens, UniProt P11229); assay type: functional
T4 sequence (P11229 whole entry): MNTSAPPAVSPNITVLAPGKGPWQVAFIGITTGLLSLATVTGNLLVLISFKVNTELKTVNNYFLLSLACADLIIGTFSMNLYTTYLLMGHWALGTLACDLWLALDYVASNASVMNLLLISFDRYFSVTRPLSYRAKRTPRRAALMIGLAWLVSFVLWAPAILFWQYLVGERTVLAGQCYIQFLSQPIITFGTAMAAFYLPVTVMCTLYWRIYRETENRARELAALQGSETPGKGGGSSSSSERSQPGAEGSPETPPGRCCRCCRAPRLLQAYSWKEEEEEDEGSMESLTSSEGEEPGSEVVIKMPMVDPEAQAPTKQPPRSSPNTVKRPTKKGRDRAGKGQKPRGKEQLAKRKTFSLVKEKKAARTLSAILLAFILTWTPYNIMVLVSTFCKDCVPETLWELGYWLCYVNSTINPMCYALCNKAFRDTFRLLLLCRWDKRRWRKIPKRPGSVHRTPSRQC

[7] = target: Cannabinoid receptor 1 (Homo sapiens, UniProt P21554); assay type: functional, cell-based
Chain of Cannabinoid receptor 1 (P21554 whole entry): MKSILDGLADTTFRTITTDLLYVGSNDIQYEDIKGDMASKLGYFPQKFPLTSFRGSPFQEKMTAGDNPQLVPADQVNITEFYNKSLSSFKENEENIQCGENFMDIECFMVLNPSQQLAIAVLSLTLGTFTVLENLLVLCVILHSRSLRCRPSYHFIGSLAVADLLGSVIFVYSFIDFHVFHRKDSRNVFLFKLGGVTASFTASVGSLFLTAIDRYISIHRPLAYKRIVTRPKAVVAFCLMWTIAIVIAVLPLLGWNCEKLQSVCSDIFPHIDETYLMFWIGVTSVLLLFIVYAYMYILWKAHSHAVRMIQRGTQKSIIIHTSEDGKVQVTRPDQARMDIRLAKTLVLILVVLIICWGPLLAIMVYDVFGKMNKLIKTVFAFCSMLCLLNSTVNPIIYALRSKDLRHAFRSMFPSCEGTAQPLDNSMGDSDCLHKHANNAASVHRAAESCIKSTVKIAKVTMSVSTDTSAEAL

[8] = target: T5, Gamma-aminobutyric acid receptor subunit alpha-1 (Rattus norvegicus, UniProt P62813); assay type: functional
T5 sequence (P62813 whole entry): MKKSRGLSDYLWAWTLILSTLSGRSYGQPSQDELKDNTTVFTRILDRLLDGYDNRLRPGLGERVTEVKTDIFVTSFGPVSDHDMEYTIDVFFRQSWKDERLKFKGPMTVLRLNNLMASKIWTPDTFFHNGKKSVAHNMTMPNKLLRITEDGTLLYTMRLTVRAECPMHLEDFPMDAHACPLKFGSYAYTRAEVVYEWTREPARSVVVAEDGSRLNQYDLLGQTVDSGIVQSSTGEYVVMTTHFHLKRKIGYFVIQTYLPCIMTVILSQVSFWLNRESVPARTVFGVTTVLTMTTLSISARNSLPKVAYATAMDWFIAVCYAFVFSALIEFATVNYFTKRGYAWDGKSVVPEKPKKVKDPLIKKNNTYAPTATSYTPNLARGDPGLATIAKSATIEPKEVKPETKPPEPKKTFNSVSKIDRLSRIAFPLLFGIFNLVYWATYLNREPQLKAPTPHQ

[9] = target: T6, 5-hydroxytryptamine receptor 3A (Homo sapiens, UniProt P46098); assay type: functional
T6 sequence (P46098 whole entry): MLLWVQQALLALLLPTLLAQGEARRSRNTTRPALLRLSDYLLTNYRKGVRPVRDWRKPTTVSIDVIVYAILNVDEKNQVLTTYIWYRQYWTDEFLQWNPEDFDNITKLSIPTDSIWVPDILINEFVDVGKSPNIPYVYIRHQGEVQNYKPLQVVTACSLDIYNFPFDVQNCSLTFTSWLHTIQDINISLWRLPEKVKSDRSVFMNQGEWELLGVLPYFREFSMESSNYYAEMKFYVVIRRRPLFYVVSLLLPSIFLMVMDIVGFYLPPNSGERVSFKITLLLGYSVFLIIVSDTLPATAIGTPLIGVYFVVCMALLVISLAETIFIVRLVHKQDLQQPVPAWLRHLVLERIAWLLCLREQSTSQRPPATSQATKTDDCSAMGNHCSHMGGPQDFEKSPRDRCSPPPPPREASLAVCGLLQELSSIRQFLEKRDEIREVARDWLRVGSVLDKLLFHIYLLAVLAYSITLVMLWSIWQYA

[10] = target: T5, Gamma-aminobutyric acid receptor subunit alpha-1
Also: assay procedure not described here.

SMILES | AC50 [1] | AC50 [2] | AC50 [3] | AC50 [4] | AC50 [5] | AC50 [6] | AC50 [7] | AC50 [8] | AC50 [9] | AC50 [10]
CC[C@@H](C(N)=O)N1CCCC1=O | > 30 µM | > 30 µM | > 30 µM | > 30 µM | > 30 µM | > 30 µM | > 30 µM | > 30 µM | > 30 µM | 
CCC(CC)(CC(=O)Nc1cccc(/C=C/c2nc(C3CCC3)cs2)c1)C(=O)O |  | > 30 µM |  | > 30 µM |  |  |  |  |  | 
CCCC1O[C@@H]2C[C@H]3[C@@H]4CCC5=CC(=O)C=C[C@]5(C)[C@H]4[C@@H](O)C[C@]3(C)[C@]2(C(=O)CO)O1 (some centres not stated) [BUDESONIDE] |  | > 10 µM | > 10 µM | > 10 µM |  |  |  | > 10 µM | > 30 µM | > 10 µM
C=CCN1C[C@H](C(=O)N(CCCN(C)C)C(=O)NCC)C[C@@H]2c3cccc4[nH]cc(c34)C[C@H]21 [CABERGOLINE] |  | > 10 µM |  | 5.4 µM | > 30 µM | > 10 µM | > 30 µM | > 10 µM | > 30 µM | > 10 µM
NC1CCN(c2c(F)cc3c(=O)c(C(=O)O)cn(C4CC4)c3c2Cl)C1 (configuration not stated) [CLINAFLOXACIN] |  |  |  |  | 250 µM |  |  |  |  | 
CN1CCN(C2=Nc3ccccc3Sc3ccc(Cl)cc32)CC1 [CLOTHIAPINE] | 1.3 µM |  | > 30 µM |  | 2 µM | 1.2 µM | > 30 µM | > 30 µM | 9 µM | > 30 µM
CN(C)CCC=C1c2ccccc2C=Cc2ccccc21 [CYCLOBENZAPRINE] | > 10 µM | > 30 µM | > 10 µM | > 30 µM | 0.35 µM | 0.18 µM | > 30 µM | > 10 µM | > 30 µM | > 10 µM
CCOc1ccc(Cc2cc([C@@H]3O[C@H](CO)[C@@H](O)[C@H](O)[C@H]3O)ccc2Cl)cc1 [DAPAGLIFLOZIN] | > 10 µM | > 30 µM |  | > 30 µM | > 30 µM | > 10 µM |  | > 10 µM | > 30 µM | > 10 µM
CN(C)CC/C=C1\c2ccccc2CSc2ccccc21 [DOTHIEPIN] | 1.3 µM | > 30 µM | > 30 µM | 20 µM |  |  | > 30 µM | > 30 µM | > 30 µM | > 30 µM
CC[C@H]1CN2CCc3cc(OC)c(OC)cc3[C@@H]2C[C@@H]1C[C@H]1NCCc2cc(OC)c(OC)cc21 [EMETINE] |  | > 30 µM | > 30 µM | > 30 µM |  |  | > 30 µM | > 30 µM | > 30 µM | > 30 µM
COc1ccc(C(=O)Nc2ccccc2CCC2CCCCN2C)cc1 (configuration not stated) [ENCAINIDE] | > 10 µM | > 30 µM | > 10 µM | > 10 µM | > 10 µM | > 10 µM | > 30 µM | > 10 µM | > 30 µM | > 10 µM
O=[N+]([O-])O[C@@H]1CO[C@H]2[C@@H]1OC[C@@H]2O [ISOSORBIDE MONONITRATE] | > 10 µM | > 30 µM | > 10 µM | > 10 µM | > 10 µM | > 10 µM |  | > 10 µM | > 30 µM | > 10 µM
Cc1cc(C)c(NC(=O)CN(CC(=O)O)CC(=O)O)c(C)c1Br [MEBROFENIN] | > 30 µM |  | > 30 µM |  | > 30 µM | > 30 µM | > 30 µM | > 30 µM | > 30 µM | > 30 µM
COc1ccccc1N1CCN(CC(O)COc2cccc3ccccc23)CC1 (configuration not stated) [NAFTOPIDIL] | 0.3 µM |  | > 30 µM | 5.5 µM | > 30 µM | > 30 µM | > 30 µM | > 30 µM | > 30 µM | > 30 µM
COc1cc2nc(N3CCN(C(=O)c4ccco4)CC3)nc(N)c2cc1OC [PRAZOSIN] |  | > 30 µM |  | > 10 µM |  |  | > 30 µM | > 10 µM | > 10 µM | > 10 µM
O=[N+]([O-])c1cn2c(n1)OC[C@@H](OCc1ccc(OC(F)(F)F)cc1)C2 [PRETOMANID] | > 10 µM | > 30 µM |  | > 10 µM | > 10 µM | > 10 µM |  | > 10 µM | > 10 µM | > 10 µM
Cc1oc(=O)oc1CN1CCN(c2cc3c(cc2F)c(=O)c(C(=O)O)c2n3C(C)S2)CC1 (configuration not stated) [PRULIFLOXACIN] | > 30 µM |  | > 30 µM |  | > 30 µM | > 30 µM | > 30 µM | > 30 µM | > 30 µM | > 30 µM
CCCCCNC(=N)N/N=C/c1c[nH]c2ccc(OC)cc12 [TEGASEROD] | 3.37 µM | > 30 µM | > 30 µM | 6.78 µM | > 30 µM | > 30 µM |  | 13 µM | > 30 µM | > 30 µM
COC1=C(OC)C(=O)C(C/C=C(\C)CC/C=C(\C)CC/C=C(\C)CC/C=C(\C)CC/C=C(\C)CC/C=C(\C)CC/C=C(\C)CC/C=C(\C)CC/C=C(\C)CCC=C(C)C)=C(C)C1=O [UBIDECARENONE] | > 30 µM |  | > 30 µM |  | > 30 µM | > 30 µM | > 30 µM | > 30 µM | > 30 µM | > 30 µM
CCOc1ccccc1OCC1CNCCO1 (configuration not stated) [VILOXAZINE] | > 10 µM | > 30 µM | > 10 µM | > 10 µM | > 10 µM | > 10 µM | > 30 µM | > 10 µM | > 10 µM | > 10 µM
CN(C)CCc1c[nH]c2ccc(C[C@H]3COC(=O)N3)cc12 [ZOLMITRIPTAN] | > 30 µM | > 30 µM | > 30 µM | > 30 µM | > 30 µM | > 30 µM | > 30 µM | > 30 µM | > 30 µM | > 30 µM
